Experiment: Stability of potassium clavulanate alone and in binary mixtures with excipients, stressed storage 7 days at 60° C.
Type: physicochemical
Settings: after storage 7 days at 60° C.; control sample, no excipient
Method: In particular, the effect of different excipients and different mixture preparation conditions on the stability of the active ingredients was analyzed. […] In addition, two sets of compatibility studies with various excipients were conducted to investigate the influence of excipients on the stability of clavulanic acid and amoxicillin in the final dosage form. In the first study, a total of eight binary (i.e. two component) mixtures were prepared, each combining: […] (a) silicified microcrystalline cellulose, (b) low moisture silicified microcrystalline cellulose, having a moisture content of less than about 3.0%, (c) crospovidone, or (d) mannitol. […] After storage at a temperature of about 60° C. for about 7 days, each of the mixtures was then assayed to determine the amount of active ingredient remaining. Similarly, in the second study, a total of eight binary mixtures were prepared, each combining: […] (a) silicified microcrystalline cellulose, (b) low moisture silicified microcrystalline cellulose, (c) crospovidone, or (d) colloidal silicon dioxide. […] Further, each of the binary mixtures in the second study was prepared in a reduced moisture environment at a normal relative humidity (RH) of less than 30%. After storage at a temperature of about 60° C. for about 7 days, each of the mixtures was then assayed to determine the amount of active ingredient remaining.

## O=C(O)[C@H]1/C(=C/CO)O[C@@H]2CC(=O)N21 [Clavulanic acid (CA), potassium clavulanate]
  Assay of clavulanic acid (%): 94%

From patent US9254261B2, “Stable quick dissolving dosage form comprising amoxicillin and clavulanic acid” (Sandoz AG, priority 2014, dated 2016)
